Laboratory results: patent US20200054058A1, “Sweetness and Taste Improvement of Steviol Glycoside and Mogroside Sweeteners with Dihydrochalcones” (The Coca-Cola Company, priority 2017, published 2020)
Read-outs that look alike come from different tables or passages of the source.

Assays:
panelist [1] = settings: Isomer of Siamenoside I in acidic water (100 ppm, Table 4); one panelist
Text: The panelist was asked to evaluate the sweetness of the samples against the 3%, 5%, and 8% sucrose solutions and describe the taste profiles.

panelists [2] = settings: 250 ppm 1,6-α-isomer of Siamenoside I in acidic water; one panelist; slightly less
panelists [3] = assay: Sensory tasting of mock beverages with Reb-J, Reb-N, Reb-O, Reb-M with and without CC-00800 against sucrose references (Example 6); format: in vivo, human; settings: for enhancement of overall sweetness by hesperitin dihydrochalcone: 10 ppm hesperitin dihydrochalcone added to the steviol glycoside beverage, all panelists; for sweetness and bitterness rank among Reb-J, Reb-N, Reb-O, Reb-M: mock beverages without hesperitin dihydrochalcone
Protocol: Steviol glycosides, namely Reb-J, Reb-N, Reb-M, Reb-O with 95% purity were purchased from commercial sources.
A 6% stock solution of CC-00800 (hesperitin dihydrochalcone, “HDC”) was made in propylene glycol (PG) food grade and used in subsequent experiments.
Acidified mock beverages (100 grams) were made using the following ingredients (in grams) in order:
All ingredients were dissolved in carbon-filtered water and the resulting beverage was filled in 300 ml glass bottles and immediately refrigerated (4° C.). Beverages were bench tasted when cold.
Four experienced panelists bench tasted the beverages blindly. Each panelist was given warm bottled water and unsalted crackers to eat and rinse the palate between samples. A maximum of 3 samples was tasted at each session to avoid fatigue.
The first session consisted of tasting beverages without hesperitin dihydrochalcone.
The second session consisted of tasting the beverages with hesperitin dihydrochalcone added (10 ppm). All panelists agreed that hesperitin dihydrochalcone enhanced the overall sweetness for about 1 Brix for Reb-J, Reb-O, and Reb-N, while Reb-M was enhanced with about 2.5 Brix.

panelists [4] = assay: Taste evaluation of NHDC with rebaudioside M in acidic water against sucrose solutions (Example 2); format: in vivo, human; settings: both panelists
Text: First, the panelists assessed the sweetness of 5 ppm of NHDC in acidic water against 1.5% sucrose solution in acidic water.
Next, panelists compared the sweetness profile of (i) a sample containing 150 ppm rebaudioside M and (ii) a sample containing 5 ppm NHDC and 150 rebaudioside M to the 6%, 8%, and 10% sucrose solutions.

panelist [5] = assay: Taste evaluation of phloretin with rebaudioside M in acidic water against sucrose solutions (Example 1); format: in vivo, human; settings: one panelist
Text: First, the panelist assessed the sweetness of 40 ppm of phloretin in acidic water against a 1.5% sucrose solution in acidic water. 40 ppm of phloretin was reported to have a sweetness less than the sweetness of the 1.5% sucrose solution.
Next, the panelist compared the sweetness profile of (i) the sample containing 150 ppm rebaudioside M in acidic water and (ii) the sample containing 40 ppm phloretin and 150 ppm rebaudioside M in acidic water to the 5%, 7%, 8%, 9%, and 10% sucrose solutions.

panelists [6] = assay: Taste evaluation of hesperetin dihydrochalcone with rebaudioside M in acidic water against sucrose solutions (Example 3); format: in vivo, human; settings: 150 ppm rebaudioside M in acidic water; both panelists; slightly less sweet
Text: Panelists compared the sweetness profile of (i) a sample containing 150 ppm rebaudioside M and (ii) a sample containing 40 ppm hesperetin dihydrochalcone and 150 ppm rebaudioside M to the 4%, 6%, 8%, and 10% sucrose solutions.

panelists [7] = assay: Bench tasting of acidified mock beverages, CC-00800 + Reb-M (Example 5); format: in vivo, human; settings: 472 ppm Reb-M, control mock beverage (Bev. #7); five panelists
Protocol: Rebaudioside M was acquired from Pure Circle (86% Reb-M, 9% Reb-D, 0.8% Reb-A, plus other steviol glycosides in minor amount).
A 6% stock solution of Hesperetin Dihydrochalcone (CC-00800) was made in propylene glycol (PG) food grade and used in subsequent experiments.
Acidified mock beverages (300 grams) were made using the following ingredients (in grams) in order:
All ingredients were dissolved in carbon-filtered water and the resulting beverage was filled in 300 ml glass bottles and immediately refrigerated (4° C.). Beverages were bench tasted next morning.
Five experienced panelists bench tasted the beverages blindly. Each panelist was given warm bottled water and unsalted crackers to eat and rinse the palate between samples. A maximum of 3 samples was tasted at each session to avoid fatigue.

panelists [8] = format: in vivo, human; settings: 250 ppm Rebaudioside M in acidic water; for sweetness in sucrose equivalents: slightly less sweet
panelists [9] = assay: Taste evaluation of hesperetin dihydrochalcone with siamenoside I in acidic water against sucrose solutions (Example 4); format: in vivo, human; settings: 150 ppm siamenoside I in acidic water; both panelists; slightly less sweet
Text: Panelists compared the sweetness profile of (i) a sample containing 150 ppm siamenoside I and (ii) a sample containing 40 ppm hesperetin dihydrochalcone and 150 ppm siamenoside I to the 4%, 6%, 8%, and 10% sucrose solutions.

panelists [10] = settings: 250 ppm Siamenoside I in acidic water; one panelist
[11] = 10 ppm hesperitin dihydrochalcone added
[12] = 150 ppm rebaudioside M in acidic water

## C[C@H](CC[C@@H](O[C@@H]1O[C@H](CO[C@H]2O[C@H](CO)[C@@H](O)[C@H](O)[C@H]2O)[C@@H](O)[C@H](O)[C@H]1O[C@@H]1O[C@H](CO)[C@@H](O)[C@H](O)[C@H]1O)C(C)(C)O)[C@H]1CC[C@@]2(C)[C@@H]3CC=C4[C@@H](CC[C@H](O[C@@H]5O[C@H](CO)[C@@H](O)[C@H](O)[C@H]5O)C4(C)C)[C@]3(C)[C@H](O)C[C@]12C [1,6-α-isomer of Siamenoside I, mogro-3-O-[β-D-glucopyranoside]-24-O-{[β-D-glucopyranosyl-(1→2)]-[α-D-glucopyranosyl-(1→6)]-β-O-D-glucopyranoside}]
Panelist [1]
  sweetness against sucrose solutions: ~4 % sucrose
Panelists [2]
  sweetness in sucrose equivalents: less than 7 % sucrose

## COc1ccc(CCC(=O)c2c(O)cc(O)cc2O)cc1O [Hesperitin dihydrochalcone, 3-(3-Hydroxy-4-methoxyphenyl)-1-(2,4,6-trihydroxyphenyl)-1-propanone]
Panelists [3]; [11]
  effect on bitterness and other off-notes of steviol glycoside beverages: reduced significantly
  effect on mouth feel of steviol glycoside beverages: improved

## COc1ccc(CCC(=O)c2c(O)cc(O[C@@H]3O[C@H](CO)[C@@H](O)[C@H](O)[C@H]3O[C@@H]3O[C@@H](C)[C@H](O)[C@@H](O)[C@H]3O)cc2O)cc1O [NHDC, 1-[4-[[(2S,3R,4S,5S,6R)-4,5-Dihydroxy-6-(hydroxymethyl)-3-[[(2S,3R,4R,5R,6S)-3,4,5-trihydroxy-6-methyl-2-tetrahydropyranyl]oxy]-2-tetrahydropyranyl]oxy]-2,6-dihydroxyphenyl]-3-(3-hydroxy-4-methoxyphenyl)propan-1-one]
Panelists [4]; 5 ppm NHDC in acidic water
  sweetness against sucrose solution: < 1.5 % sucrose

## C=C1C[C@@]23CC[C@H]4[C@@](C)(CCC[C@@]4(C)C(=O)O[C@@H]4O[C@H](CO)[C@@H](O)[C@H](O)[C@H]4O[C@@H]4O[C@@H](C)[C@H](O)[C@@H](O)[C@H]4O)[C@@H]2CC[C@]1(O[C@@H]1O[C@H](CO)[C@@H](O)[C@H](O[C@@H]2O[C@H](CO)[C@@H](O)[C@H](O)[C@H]2O)[C@H]1O[C@@H]1O[C@H](CO)[C@@H](O)[C@H](O)[C@H]1O)C3 [Reb-J, rebaudioside J]
Panelists [3]
  enhancement of overall sweetness by hesperitin dihydrochalcone: about 1 Brix
  sweetness and bitterness rank among Reb-J, Reb-N, Reb-O, Reb-M: least sweet and most bitter

## C=C1C[C@@]23CC[C@H]4[C@@](C)(CCC[C@@]4(C)C(=O)O[C@@H]4O[C@H](CO)[C@@H](O)[C@H](O[C@@H]5O[C@H](CO)[C@@H](O)[C@H](O)[C@H]5O)[C@H]4O[C@@H]4O[C@@H](C)[C@H](O)[C@@H](O)[C@H]4O)[C@@H]2CC[C@]1(O[C@@H]1O[C@H](CO)[C@@H](O)[C@H](O[C@@H]2O[C@H](CO)[C@@H](O)[C@H](O)[C@H]2O)[C@H]1O[C@@H]1O[C@H](CO)[C@@H](O)[C@H](O)[C@H]1O)C3 [Reb-N, rebaudioside N]
Panelists [3]
  enhancement of overall sweetness by hesperitin dihydrochalcone: about 1 Brix

## C=C1C[C@@]23CC[C@H]4[C@@](C)(CCC[C@@]4(C)C(=O)O[C@@H]4O[C@H](CO)[C@@H](O)[C@H](O[C@@H]5O[C@H](CO)[C@@H](O)[C@H](O)[C@H]5O)[C@H]4O[C@@H]4O[C@@H](C)[C@H](O)[C@@H](O[C@@H]5O[C@H](CO)[C@@H](O)[C@H](O)[C@H]5O)[C@H]4O)[C@@H]2CC[C@]1(O[C@@H]1O[C@H](CO)[C@@H](O)[C@H](O[C@@H]2O[C@H](CO)[C@@H](O)[C@H](O)[C@H]2O)[C@H]1O[C@@H]1O[C@H](CO)[C@@H](O)[C@H](O)[C@H]1O)C3 [Reb-O, rebaudioside O]
Panelists [3]
  enhancement of overall sweetness by hesperitin dihydrochalcone: about 1 Brix

## O=C(CCc1ccc(O)cc1)c1c(O)cc(O)cc1O [phloretin, 3-(4-hydroxyphenyl)-1-(2,4,6-trihydroxyphenyl)propan-1-one]
Panelist [5]; 40 ppm phloretin in acidic water
  sweetness against sucrose solution: < 1.5 % sucrose

## C=C1C[C@@]23CC[C@H]4[C@@](C)(CCC[C@@]4(C)C(=O)O[C@@H]4O[C@H](CO)[C@@H](O)[C@H](O[C@@H]5O[C@H](CO)[C@@H](O)[C@H](O)[C@H]5O)[C@H]4O[C@@H]4O[C@H](CO)[C@@H](O)[C@H](O)[C@H]4O)[C@@H]2CC[C@]1(O[C@@H]1O[C@H](CO)[C@@H](O)[C@H](O[C@@H]2O[C@H](CO)[C@@H](O)[C@H](O)[C@H]2O)[C@H]1O[C@@H]1O[C@H](CO)[C@@H](O)[C@H](O)[C@H]1O)C3 [rebaudioside M]
Panelist [5]; [12]
  sweetness against sucrose solutions: 6 % sucrose
Panelists [4]; [12]
  sweetness against sucrose solutions: 6 % sucrose
Panelists [6]
  sweetness against sucrose solutions: < 6 % sucrose
Panelists [7]
  aftertaste of control: sweet lingering, licorice and bitter aftertaste observed in the control
Panelists [3]
  enhancement of overall sweetness by hesperitin dihydrochalcone: about 2.5 Brix
  sweetness and bitterness rank among Reb-J, Reb-N, Reb-O, Reb-M: sweetest
Panelists [8]; both panelists
  sweetness and mouthfeel compared with sample also containing Hesperetin dihydrochalcone-4′-beta-D-glucoside: less sweet and less mouthfeel
Panelists [8]; one panelist
  sweetness in sucrose equivalents: < 7 % sucrose
Panelists [8]; the other panelist
  sweetness in sucrose equivalents: < 8 % sucrose

## C[C@H](CC[C@@H](O[C@@H]1O[C@H](CO[C@@H]2O[C@H](CO)[C@@H](O)[C@H](O)[C@H]2O)[C@@H](O)[C@H](O)[C@H]1O[C@@H]1O[C@H](CO)[C@@H](O)[C@H](O)[C@H]1O)C(C)(C)O)[C@H]1CC[C@@]2(C)[C@@H]3CC=C4[C@@H](CC[C@H](O[C@@H]5O[C@H](CO)[C@@H](O)[C@H](O)[C@H]5O)C4(C)C)[C@]3(C)[C@H](O)C[C@]12C [siamenoside I]
Panelists [9]
  sweetness against sucrose solutions: < 6 % sucrose
Panelists [10]
  sweetness in sucrose equivalents: ~6 % sucrose
